These compounds were tested against human aldose reductase (hALR2) (Homo sapiens, UniProt P15121) (assay: Inhibition of human aldose reductase (hALR2), methods similar to Butera et al.). Conditions: not given.
Assay type: biochemical
Method: Representative compounds of Formula Iwere tested for their potency, selectivity and efficacy as inhibitors of human aldose reductase.
Since high potency of test compounds as inhibitors of aldose reductase is desirable, low hALR2 IC50 values are sought. On the other hand, high potency of test compounds as inhibitors of aldehyde reductase is undesirable, and high ALR1 IC50s values are sought. Accordingly, the hALR1/hALR2 ratio is used to determine the selectivity of the test compounds. The importance of this selectivity is Described in Kotani, et al., J. Med. Chem. 40: 684, 1997.

Compound | IC50
Cc1c(Cc2nc3c(F)c(F)cc(F)c3s2)c2ccccc2n1CC(=O)O [Example 1, 2-methyl-3-(4,5,7-trifluorobenzothiazol-2-yl)methyl-indole-N-acetic Acid] | 8 nM
O=C(O)Cn1cc(Cc2nc3c(F)c(F)cc(F)c3s2)c2cc(Cl)ccc21 [Example 2, 5-chloro-3-(4,5,7-Trifluorobenzothiazol-2-yl)methyl-indole-N-acetic Acid] | 10 nM
Cc1ccc2c(c1)c(Cc1nc3c(F)c(F)cc(F)c3s1)cn2CC(=O)O [Example 4, 5-methyl-3-(4,5,7-trifluorobenzothiazol-2-yl)methyl-indole-N-acetic Acid] | 8 nM
Cc1cccc2c(Cc3nc4c(F)c(F)cc(F)c4s3)cn(CC(=O)O)c12 [Example 5, 7-methyl-3-(4,5,7-trifluorobenzothiazol-2-yl)methyl-indole-N-acetic Acid] | 6 nM
O=C(O)Cn1cc(Cc2nc3c(F)c(F)cc(F)c3s2)c2ccc(Cl)cc21 [Example 6, 6-chloro-3-(4,5,7-trifluorobenzothiazol-2-yl)methyl-indole-N-acetic Acid] | 8 nM
O=C(O)Cn1cc(Cc2nc3c(F)c(F)cc(F)c3s2)c2cc(OCc3ccccc3)ccc21 [Example 7, 5-benzyloxy-3-(4,5,7-trifluorobenzothiazol-2-yl)methyl-indole-N-acetic Acid] | 12 nM
O=C(O)Cn1cc(Cc2nc3c(F)c(F)cc(F)c3s2)c2ccc(F)cc21 [Example 8, 6-fluoro-3-(4,5,7-trifluorobenzothiazol-2-yl)methyl-indole-N-acetic Acid] | 7 nM
O=C(O)Cn1cc(Cc2nc3c(F)c(F)cc(F)c3s2)c2cc(F)ccc21 [Example 9, 5-fluoro-3-(4,5,7-trifluorobenzothiazol-2-yl)methyl-indole-N-acetic Acid] | 11 nM
Cc1ccc2c(Cc3nc4c(F)c(F)cc(F)c4s3)cn(CC(=O)O)c2c1 [Example 10, 6-methyl-3-(4,5,7-trifluorobenzothiazol-2-yl)methyl-indole-N-acetic Acid] | 5 nM
O=C(O)Cn1cc(Cc2nc3cc(C(F)(F)F)ccc3s2)c2ccccc21 [Example 11, 3-(5-trifluoromethylbenzothiazol-2-yl)methyl-indole-N-acetic Acid] | 99 nM
O=C(O)Cn1c(-c2ccccc2)c(Cc2nc3c(F)c(F)cc(F)c3s2)c2ccccc21 [Example 14, 2-phenyl-3-(4,5,7-trifluorobenzothiazol-2-yl)methyl-indole-N-acetic Acid] | 101 nM
O=C(O)Cn1cc(Cc2nc3c(F)c(F)cc(F)c3s2)c2cc(-c3ccccc3)ccc21 [Example 15, 5-phenyl-3-(4,5,7-trifluorobenzothiazol-2-yl)methyl-indole-N-acetic acid] | 53 nM
O=C(O)Cn1cc(Cc2nc3c(F)c(F)cc(F)c3s2)c2cc(N3CCOCC3)ccc21 [Example 17, 5-morpholino-3-(4,5.7-trifluorobenzothiazol-2-yl)methyl-indole-N-acetic Acid] | 8 nM
O=C(O)Cn1cc(Cc2nc3c(F)c(F)cc(F)c3s2)c2cc(Oc3ccccc3)ccc21 [Example 19, 5-phenoxy-3-(4,5,7-trifluorobenzothiazol-2-yl)methyl-indole-N-acetic Acid] | 30 nM
O=C(O)Cn1cc(Cc2nc3c(F)c(F)cc(F)c3s2)c2cccc(F)c21 [Example 20, 7-fluoro-3-(4,5,7-trifluorobenzothiazol-2-yl)methyl-indole-N-acetic Acid] | 7 nM
O=C(O)Cn1cc(Cc2nc3c(F)c(F)cc(F)c3s2)c2cccc(Br)c21 [Example 21, 7-bromo-3-(4,5,7-trifluorobenzothiazol-2-yl)methyl-indole-N-acetic Acid] | 14 nM
O=C(O)Cn1cc(Cc2nc3c(F)c(F)cc(F)c3s2)c2cccc(Cl)c21 [Example 22, 7-chloro-3-(4,5,7-trifluorobenzothiazol-2-yl)methyl-indole-N-acetic Acid] | 9.1 nM

Same assay, conditions: ratio of hALR1 IC50 to hALR2 IC50 (selectivity)

Compound | HALR1/hALR2
3-[6-Fluorbenzothiazole-2-yl]methyl-indole-N-acetic Acid [Example 24] | 4
